{"source": "ChEMBL document CHEMBL1132890", "about": "“Prediction of drug solubility from Monte Carlo simulations” (Bioorg Med Chem Lett, 2000)", "data": [{"conditions": "buffer", "values": [{"smiles": "Oc1cccc(Cl)c1Cl", "Log S": -1.3}, {"smiles": "Clc1c(Cl)c(Cl)c(-c2ccccc2)c(Cl)c1Cl", "Log S": -7.78}, {"smiles": "COC(=O)[C@@H]1C2CC[C@@H](C[C@@H]1OC(=O)c1ccccc1)N2C", "note": "(single isomer, unassigned) [COCAINE]", "Log S": -2.25}, {"smiles": "COC(C)=O", "note": "[ACETIC ACID METHYL ESTER]", "Log S": 0.46}, {"smiles": "CCO", "note": "[ALCOHOL]", "Log S": 1.1}, {"smiles": "Nc1ccccc1", "note": "[ANILINE]", "Log S": -0.41}, {"smiles": "COc1ccccc1", "note": "[ANISOLE]", "Log S": -1.85}, {"smiles": "NC(=O)c1ccccc1", "note": "[BENZAMIDE]", "Log S": -0.96}, {"smiles": "O=C(O)c1ccccc1", "note": "[BENZOIC ACID]", "Log S": -1.55}, {"smiles": "c1ccc(-c2ccccc2)cc1", "note": "[BIPHENYL]", "Log S": -4.35}, {"smiles": "C=C(C)C1CC=C(C)C(=O)C1", "note": "(centres undefined) [CARVONE]", "Log S": -2.06}, {"smiles": "CN(C)CCCN1c2ccccc2Sc2ccc(Cl)cc21", "note": "[CHLORPROMAZINE]", "Log S": -5.1}, {"smiles": "c1ccc2c(c1)oc1ccccc12", "note": "[DIBENZOFURAN]", "Log S": -4.6}, {"smiles": "CC/C(=C(/CC)c1ccc(O)cc1)c1ccc(O)cc1", "note": "[DIETHYLSTILBESTROL]", "Log S": -4.07}, {"smiles": "O=C(O)Cc1ccccc1Oc1ccc(Cl)cc1Cl", "note": "[FENCLOFENAC]", "Log S": -3.85}, {"smiles": "COC1=CC(=O)C[C@@H](C)[C@]12Oc1c(Cl)c(OC)cc(OC)c1C2=O", "note": "[GRISEOFULVIN]", "Log S": -4.07}, {"smiles": "CCCCCC", "note": "[HEXANE]", "Log S": -3.84}, {"smiles": "c1ccc2[nH]ccc2c1", "note": "[INDOLE]", "Log S": -1.21}, {"smiles": "O=C1Nc2ccc(Cl)cc2C(c2ccccc2Cl)=NC1O", "note": "(centres undefined) [LORAZEPAM]", "Log S": -3.6}, {"smiles": "C1COCCN1", "note": "[MORPHOLINE]", "Log S": 1.97}, {"smiles": "O=[N+]([O-])c1ccccc1", "note": "[NITROBENZENE]", "Log S": -1.8}, {"smiles": "O=C1CN(/N=C/c2ccc([N+](=O)[O-])o2)C(=O)N1", "note": "[NITROFURANTOIN]", "Log S": -3.38}, {"smiles": "CCOC(=O)NCCOc1ccc(Oc2ccccc2)cc1", "note": "[PHENOXYCARB]", "Log S": -4.7}, {"smiles": "CCCO", "note": "[PROPANOL]", "Log S": 0.62}, {"smiles": "c1ccc2ncccc2c1", "note": "[QUINOLINE]", "Log S": -1.3}, {"smiles": "O=C(O)c1ccccc1O", "note": "[SALICYLIC ACID]", "Log S": -1.82}, {"smiles": "Cc1ccccc1", "note": "[TOLUENE]", "Log S": -2.21}, {"smiles": "CC(=O)CC(c1ccccc1)c1c(O)c2ccccc2oc1=O", "note": "(centres undefined) [WARFARIN]", "Log S": -4.26}, {"smiles": "Cc1ccc(O)cc1", "note": "[p-CRESOL]", "Log S": -0.73}]}]}
